Laboratory results as given in patent US9695155B2, “Herbicidal substituted pyrimidinyloxy benzene compounds” (E. I. DU PONT DE NEMOURS AND COMPANY, priority 2013, dated 2017).

Legend:
corn = experiment: Test C postemergence; format: in vivo, Zea mays; settings: Zea mays, post-emergence
In short: (§1)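 Whole-plant greenhouse test with surfactant-containing solvent formulation, applied preemergence to sown loam–sand pots or postemergence to 2–18 cm plants. Scored by eye 13 to 15 days on, 0–100 scale.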

morningglory = experiment: Test C preemergence; format: in vivo, Ipomoea coccinea; settings: Ipomoea, pre-emergence, preemergence, read-out: Morningglory plant response rating
In short: as §1

large (Lg) crabgrass = experiment: Test A preemergence; format: in vivo, Digitaria sanguinalis; settings: Digitaria sanguinalis, pre-emergence, 240 h, 0 to 100 scale where 0 is no effect and 100 is complete control
In short: (§2)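 Injury scores run from 0, no effect, to 100, complete control, judged by eye against untreated plants roughly 10 days after treatment. Chemicals carried a surfactant in a non-phytotoxic solvent and went onto loam–sand soil preemergence or onto one- to two-leaf seedlings postemergence.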

yellow nutsedge [1] = experiment: Test C preemergence; format: in vivo, Cyperus esculentus; settings: Cyperus, pre-emergence, preemergence, read-out: Nutsedge, Yellow plant response rating
In short: as §1

barnyardgrass = experiment: Test C postemergence; format: in vivo, Echinochloa crus-galli; settings: Echinochloa crus-galli, post-emergence
In short: as §1

blackgrass [2] = experiment: Test C postemergence; format: in vivo, Alopecurus myosuroides; settings: Alopecurus myosuroides, post-emergence
In short: as §1

chickweed = experiment: Test C postemergence; format: in vivo, Stellaria media; settings: Stellaria media, post-emergence
In short: as §1

wheat, winter = experiment: Test C postemergence; format: in vivo, Triticum aestivum
In short: as §1

ragweed = experiment: Test C preemergence; format: in vivo, Ambrosia elatior; settings: Ambrosia artemisiifolia, pre-emergence, preemergence, read-out: Ragweed plant response rating
In short: as §1

Italian ryegrass = experiment: Test C preemergence; format: in vivo, Lolium multiflorum; settings: Lolium multiflorum, pre-emergence, preemergence, read-out: Ryegrass, Italian plant response rating
In short: as §1

pigweed [3] = experiment: Test A preemergence; format: in vivo, Amaranthus retroflexus
In short: as §2

soybean = experiment: Test C preemergence; format: in vivo, Glycine max; settings: Glycine max, pre-emergence, preemergence, read-out: Soybean plant response rating
In short: as §1

giant foxtail = experiment: Test C postemergence; format: in vivo, Setaria faberii; settings: Setaria faberi, post-emergence
In short: as §1

wild oat = experiment: Test C postemergence; format: in vivo, Avena fatua
In short: as §1

pigweed [4] = experiment: Test C preemergence; format: in vivo, Amaranthus retroflexus; settings: Amaranthus retroflexus, pre-emergence, preemergence, read-out: Pigweed plant response rating
In short: as §1

yellow nutsedge [5] = experiment: Test C postemergence; format: in vivo, Cyperus esculentus
In short: as §1

blackgrass [6] = experiment: Test C preemergence; format: in vivo, Alopecurus myosuroides; settings: Alopecurus myosuroides, pre-emergence
In short: as §1

[7] = 16 g ai/ha, scale 0 to 100 (0 no effect, 100 complete control)
[8] = 62 g ai/ha, scale 0 (no effect) to 100 (complete control)
[9] = 125 g ai/ha, scale 0 (no effect) to 100 (complete control)
[10] = 31 g ai/ha, postemergence, visual rating, scale 0 to 100 (0 no effect, 100 complete control), 13 to 15 days

## FC(F)(F)c1cn(-c2ccccc2Oc2ncc(Cl)cn2)nn1 [Compound 166, 5-chloro-2-[2-[4-(trifluoromethyl)-1H-1,2,3-triazol-1-yl]phenoxy]pyrimidine]
corn; 16 g ai/ha, postemergence, 0 is no effect, 100 is complete control, read-out: Plant response rating (0 to 100), Corn
  plant injury at 16 g/ha: 5%
corn; 31 g ai/ha, postemergence, visual rating, scale 0 to 100 (0 no effect, 100 complete control), 13 to 15 days, read-out: Corn plant response rating
  plant injury at 31 g/ha: 5%
corn; 125 g ai/ha, postemergence, visual rating, scale 0 to 100 (0 no effect, 100 complete control)
  Corn plant response rating (crop injury, 0 = no effect, 100 = complete kill) at 125 g/ha: 15%
corn; Postemergence, 62 g ai/ha, scale 0 to 100 (0 no effect, 100 complete control)
  Corn plant response rating (crop injury, 0 = no effect, 100 = complete kill) at 62 g/ha: 10%
morningglory; [7]
  pest or weed control at 16 g/ha: 15%
morningglory; [8]
  pest or weed control at 62 g/ha: 98%
morningglory; [9]
  pest or weed control at 125 g/ha: 100%
Large (Lg) crabgrass; 125 g ai/ha, read-out: Plant response rating, Crabgrass, Large
  pest or weed control at 125 g/ha: 100%
Large (Lg) crabgrass; 500 g ai/ha, read-out: Crabgrass, Large plant response rating
  pest or weed control at 500 g/ha: 100%
Yellow nutsedge [1]; [7]
  pest or weed control at 16 g/ha: 0%
Yellow nutsedge [1]; [8]
  pest or weed control at 62 g/ha: 35%
Yellow nutsedge [1]; [9]
  pest or weed control at 125 g/ha: 80%
barnyardgrass; 16 g ai/ha, postemergence, 0 is no effect, 100 is complete control, read-out: Plant response rating (0 to 100), Barnyardgrass
  pest or weed control at 16 g/ha: 5%
barnyardgrass; 31 g ai/ha, postemergence, visual rating, scale 0 to 100 (0 no effect, 100 complete control), 13 to 15 days, read-out: Barnyardgrass plant response rating
  pest or weed control at 31 g/ha: 10%
barnyardgrass; 125 g ai/ha, postemergence, visual rating, scale 0 to 100 (0 no effect, 100 complete control), read-out: Plant response rating, Barnyardgrass
  pest or weed control at 125 g/ha: 15%
barnyardgrass; Postemergence, 62 g ai/ha, scale 0 to 100 (0 no effect, 100 complete control), read-out: Plant response rating, Barnyardgrass
  pest or weed control at 62 g/ha: 10%
Blackgrass [2]; 16 g ai/ha, postemergence, 0 is no effect, 100 is complete control, read-out: Plant response rating (0 to 100), Blackgrass
  pest or weed control at 16 g/ha: 5%
Blackgrass [2]; 31 g ai/ha, postemergence, visual rating, scale 0 to 100 (0 no effect, 100 complete control), 13 to 15 days, read-out: Blackgrass plant response rating
  pest or weed control at 31 g/ha: 10%
Blackgrass [2]; 125 g ai/ha, postemergence, visual rating, scale 0 to 100 (0 no effect, 100 complete control), read-out: Plant response rating, Blackgrass
  pest or weed control at 125 g/ha: 60%
Blackgrass [2]; Postemergence, 62 g ai/ha, scale 0 to 100 (0 no effect, 100 complete control), read-out: Plant response rating, Blackgrass
  pest or weed control at 62 g/ha: 45%
chickweed; 16 g ai/ha, postemergence, 0 is no effect, 100 is complete control, read-out: Plant response rating (0 to 100), Chickweed
  pest or weed control at 16 g/ha: 60%
chickweed; 31 g ai/ha, postemergence, visual rating, scale 0 to 100 (0 no effect, 100 complete control), 13 to 15 days, read-out: Chickweed plant response rating
  pest or weed control at 31 g/ha: 80%
chickweed; 125 g ai/ha, postemergence, visual rating, scale 0 to 100 (0 no effect, 100 complete control), read-out: Plant response rating, Chickweed
  pest or weed control at 125 g/ha: 95%
chickweed; Postemergence, 62 g ai/ha, scale 0 to 100 (0 no effect, 100 complete control), read-out: Plant response rating, Chickweed
  pest or weed control at 62 g/ha: 90%
wheat, winter; [10]
  Wheat plant response rating: 5
wheat, winter; Triticum aestivum, post-emergence, 16 g ai/ha, postemergence, 0 is no effect, 100 is complete control, read-out: Plant response rating (0 to 100), Wheat
  plant injury at 16 g/ha: 5%
wheat, winter; Triticum aestivum, post-emergence, 125 g ai/ha, postemergence, visual rating, scale 0 to 100 (0 no effect, 100 complete control), read-out: Plant response rating, Wheat
  plant injury at 125 g/ha: 20%
wheat, winter; Triticum aestivum, post-emergence, Postemergence, 62 g ai/ha, scale 0 to 100 (0 no effect, 100 complete control), read-out: Plant response rating, Wheat
  plant injury at 62 g/ha: 35%
ragweed; [7]
  pest or weed control at 16 g/ha: 50%
ragweed; [8]
  pest or weed control at 62 g/ha: 95%
ragweed; [9]
  pest or weed control at 125 g/ha: 95%
Italian ryegrass; [7]
  pest or weed control at 16 g/ha: 5%
Italian ryegrass; [8]
  pest or weed control at 62 g/ha: 90%
Italian ryegrass; [9]
  pest or weed control at 125 g/ha: 90%
Pigweed [3]; 125 g ai/ha
  Pigweed plant response rating (0 to 100 scale): 100
Pigweed [3]; Amaranthus retroflexus, pre-emergence, 240 h, 500 g ai/ha, 0 to 100 scale where 0 is no effect and 100 is complete control, read-out: Pigweed plant response rating
  pest or weed control at 500 g/ha: 100%
soybean; [7]
  plant injury at 16 g/ha: 60%
soybean; [8]
  plant injury at 62 g/ha: 95%
soybean; [9]
  plant injury at 125 g/ha: 95%
Giant foxtail; 16 g ai/ha, postemergence, 0 is no effect, 100 is complete control, read-out: Plant response rating (0 to 100), Foxtail, Giant
  pest or weed control at 16 g/ha: 5%
Giant foxtail; 31 g ai/ha, postemergence, visual rating, scale 0 to 100 (0 no effect, 100 complete control), 13 to 15 days, read-out: Foxtail, Giant plant response rating
  pest or weed control at 31 g/ha: 5%
Giant foxtail; 125 g ai/ha, postemergence, visual rating, scale 0 to 100 (0 no effect, 100 complete control), read-out: Plant response rating, Foxtail, Giant
  pest or weed control at 125 g/ha: 35%
Giant foxtail; Postemergence, 62 g ai/ha, scale 0 to 100 (0 no effect, 100 complete control), read-out: Plant response rating, Foxtail, Giant
  pest or weed control at 62 g/ha: 10%
Wild oat; [10]
  Oat, Wild plant response rating: 10
Wild oat; Avena fatua, post-emergence, 16 g ai/ha, postemergence, 0 is no effect, 100 is complete control, read-out: Plant response rating (0 to 100), Oat, Wild
  pest or weed control at 16 g/ha: 5%
Wild oat; Avena fatua, post-emergence, 125 g ai/ha, postemergence, visual rating, scale 0 to 100 (0 no effect, 100 complete control), read-out: Plant response rating, Oat, Wild
  pest or weed control at 125 g/ha: 50%
Wild oat; Avena fatua, post-emergence, Postemergence, 62 g ai/ha, scale 0 to 100 (0 no effect, 100 complete control), read-out: Plant response rating, Oat, Wild
  pest or weed control at 62 g/ha: 35%
Pigweed [4]; [7]
  pest or weed control at 16 g/ha: 100%
Pigweed [4]; [8]
  pest or weed control at 62 g/ha: 100%
Pigweed [4]; [9]
  pest or weed control at 125 g/ha: 100%
Yellow nutsedge [5]; [10]
  Nutsedge, Yellow plant response rating: 5
Yellow nutsedge [5]; Cyperus, post-emergence, 16 g ai/ha, postemergence, 0 is no effect, 100 is complete control, read-out: Plant response rating (0 to 100), Nutsedge, Yellow
  pest or weed control at 16 g/ha: 0%
Yellow nutsedge [5]; Cyperus, post-emergence, 125 g ai/ha, postemergence, visual rating, scale 0 to 100 (0 no effect, 100 complete control), read-out: Plant response rating, Nutsedge, Yellow
  pest or weed control at 125 g/ha: 5%
Yellow nutsedge [5]; Cyperus, post-emergence, Postemergence, 62 g ai/ha, scale 0 to 100 (0 no effect, 100 complete control), read-out: Plant response rating, Nutsedge, Yellow
  pest or weed control at 62 g/ha: 5%
Blackgrass [6]; 16 g ai/ha, preemergence, scale 0 to 100 (0 no effect, 100 complete control), read-out: Blackgrass plant response rating
  pest or weed control at 16 g/ha: 40%
Blackgrass [6]; 62 g ai/ha, preemergence, scale 0 (no effect) to 100 (complete control), read-out: Blackgrass plant response rating
  pest or weed control at 62 g/ha: 90%
Blackgrass [6]; 125 g ai/ha, preemergence, scale 0 (no effect) to 100 (complete control), read-out: Blackgrass plant response rating
  pest or weed control at 125 g/ha: 100%
Blackgrass [6]; Preemergence, 31 g ai/ha, scale 0 to 100, 0 no effect, 100 complete control, read-out: Plant response rating, Blackgrass
  pest or weed control at 31 g/ha: 85%
